Measured values reported in US12569464B2, “Protein-protein interaction inducing technology” (Arvinas Operations, Inc., priority 2016, dated 2026).
Where two headings read alike, the source gives them in different places.

Legend:
[1] = biological target: T1, AR (Homo sapiens, UniProt P10275+P40337, T878A); assay: AR degradation in LNCaP cells (androgen receptor ELISA); format: cell-based; details: LNCaP cells; for DC50: read-out: AR degradation potency DC50
T1 construct: degradation Dmax of AR in LNCaP cells; endogenous in cells; host or cells: LNCaP
T1 sequence (Q15370 whole entry): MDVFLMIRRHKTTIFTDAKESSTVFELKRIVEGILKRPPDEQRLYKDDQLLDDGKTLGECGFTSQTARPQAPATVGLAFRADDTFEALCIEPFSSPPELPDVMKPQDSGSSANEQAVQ
T1 sequence (P40337 whole entry): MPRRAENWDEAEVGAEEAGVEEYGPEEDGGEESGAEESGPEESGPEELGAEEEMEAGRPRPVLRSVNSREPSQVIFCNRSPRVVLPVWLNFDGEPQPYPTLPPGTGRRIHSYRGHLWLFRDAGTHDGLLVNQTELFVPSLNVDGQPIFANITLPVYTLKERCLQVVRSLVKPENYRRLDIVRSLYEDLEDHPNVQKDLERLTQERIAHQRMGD
T1 sequence (P10275 whole entry T878A): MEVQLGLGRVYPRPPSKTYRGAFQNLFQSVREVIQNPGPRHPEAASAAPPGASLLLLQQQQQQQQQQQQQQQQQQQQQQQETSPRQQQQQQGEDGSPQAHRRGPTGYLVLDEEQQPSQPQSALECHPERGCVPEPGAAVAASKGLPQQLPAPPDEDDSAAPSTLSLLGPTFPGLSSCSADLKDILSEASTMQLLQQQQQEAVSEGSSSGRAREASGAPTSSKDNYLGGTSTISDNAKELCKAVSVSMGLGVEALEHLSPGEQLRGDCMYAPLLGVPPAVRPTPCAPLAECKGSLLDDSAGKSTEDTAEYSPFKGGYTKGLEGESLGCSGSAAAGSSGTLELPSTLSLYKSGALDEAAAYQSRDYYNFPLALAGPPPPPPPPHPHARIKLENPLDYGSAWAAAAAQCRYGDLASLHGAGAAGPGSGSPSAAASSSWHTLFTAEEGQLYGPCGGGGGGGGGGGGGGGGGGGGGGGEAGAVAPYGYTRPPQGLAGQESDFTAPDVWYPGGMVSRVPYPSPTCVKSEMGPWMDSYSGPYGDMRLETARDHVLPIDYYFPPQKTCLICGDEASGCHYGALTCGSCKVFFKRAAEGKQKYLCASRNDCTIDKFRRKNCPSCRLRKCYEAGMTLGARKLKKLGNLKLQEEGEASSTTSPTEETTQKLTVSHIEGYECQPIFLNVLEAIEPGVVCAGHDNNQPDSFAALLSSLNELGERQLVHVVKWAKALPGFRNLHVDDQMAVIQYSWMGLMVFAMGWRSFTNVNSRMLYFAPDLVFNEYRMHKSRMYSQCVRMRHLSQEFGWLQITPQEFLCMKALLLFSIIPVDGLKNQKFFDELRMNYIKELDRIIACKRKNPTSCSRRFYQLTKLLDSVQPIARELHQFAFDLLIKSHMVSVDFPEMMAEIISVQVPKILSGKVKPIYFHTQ
T1 sequence (Q15369 whole entry, further chain): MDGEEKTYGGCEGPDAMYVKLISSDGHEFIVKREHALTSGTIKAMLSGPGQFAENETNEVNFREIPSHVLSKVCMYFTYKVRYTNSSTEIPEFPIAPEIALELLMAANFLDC
Experimental: The connector linking the AR-binding warhead and the VHL-binding warhead was systematically probed from 4 to 23 atoms. The AR degradation potency DC50 and the maximum percentage of degradation Dmax of AR in LNCaP cells were measured for each of these compounds. […] The binary binding potency with respect to AR was also measured for some of the compounds by the cell-based ligand (R1881) displacement assay. The ratio α between the AR-binding potency and the degradation potency are calculated when it is possible.
Androgen Receptor ELISA Assay
The protocols used with VCaP cells are described below. The androgen receptor ELISA assay was performed using PathScan AR ELISA (Cell Signaling Catalog #12850) according to the following assay steps: […]

[2] = system: c-Myc expression; assay: c-Myc ELISA assay in 22RV1 cells; format: cell-based, human
Experimental: It is composed of a BRD4-binding warhead which is connected to a VHL-binding warhead by a linear connector. […] Either the inhibition of BRD4 (by binding and blocking the active site of BRD4) or the degradation of BRD4 leads to the down-regulation of the expression level of a downstream protein c-Myc. […] MD simulation of a ternary system composed of BRD4 bromodomain 1, the ligand L and the complex of VHL with EB and EC in the presence of explicit water was performed.
The connector linking the BRD-4 binding warhead and the cereblon-binding warhead was systematically probed from 2 to 8 atoms. For comparison, the parent inhibitor of BRD4 (compound JQ1) was also prepared. […] The expression level of a downstream protein c-Myc was measured. In this assay, either the inhibition of BRD4 (by binding and blocking the active site of BRD4) or the degradation of BRD4 leads to the down-regulation of the expression level of c-Myc.
The connector linking the BRD4 warhead and the VHL-binding warhead was systematically probed from 5 to 19 atoms. […] The expression level of a downstream protein c-Myc was measured. In this assay, either the inhibition of BRD4 (e.g., by binding and blocking the active site of BRD4) or the degradation of BRD4 results in the down-regulation of the expression level of c-Myc.
c-Myc ELISA Assay Protocol
22RV-1 cells were purchased from ATCC and cultured in RPMI+10% FBS media. Cells were harvested using trypsin (Gibco #25200-114), counted and seeded at 30,000 cells/well at a volume of 75 μL/well in RPMI+10% FBS media in 96-well plates. The cells were dosed with compounds diluted in 0.1% DMSO, incubated for 18h then washed and lysed in 50 uL RIPA buffer (50 mM Tris pH8, 150 mM NaCl, 1% Tx-100, 0.1% SDS, 0.5% sodium deoxycholate) supplemented with protease and phosphatase inhibitors. The lysates were clarified at 4000 rpm at 4° C. for 10 minutes then aliquots were added into a 96-well ELISA plate of Novex Human c-Myc ELISA kit from Life Technologies Catalog #KHO2041. 50 µL of c-Myc Detection antibody was added into every well, the plates incubated at room temperature for 3 hrs, then washed with ELISA wash buffer. 100 μL of the anti-rabbit IgG-HRP secondary antibody was added to each well and incubated at room temperature for 30 minutes. The plates were washed with ELISA wash buffer, 100 μL TMB added to each well, and then monitored every 5 minutes for a color change. 100 μL of stop solution is added and the plates read at 450 nm.

[3] = 22RV1 cells, BRD4-VHL series, Table 3
[4] = 22RV1 cells, BRD4-VHL series, Table 3, read-out: c-Myc expression inhibition IC50
[5] = 22RV1 cells, BRD4-cereblon series, Table 2
[6] = 22RV1 cells, BRD4-cereblon series, Table 2, read-out: c-Myc expression inhibition IC50
[7] = 22RV1 cells, connector composition changes, Table 4
[8] = 22RV1 cells, connector composition changes, Table 4, read-out: c-Myc expression inhibition IC50

Cc1ncsc1-c1ccc(CNC(=O)[C@@H]2C[C@@H](O)CN2C(=O)[C@@H](NC(=O)CCOCCOc2ccc(N3C(=S)N(c4ccc(C#N)c(C(F)(F)F)c4)C(=O)C3(C)C)cc2)C(C)(C)C)cc1 [Compound 3]
maximum AR degradation Dmax [1]: 56%

Cc1ncsc1-c1ccc(CNC(=O)[C@@H]2C[C@@H](O)CN2C(=O)[C@@H](NC(=O)COCCCCNC(=O)C[C@@H]2N=C(c3ccc(Cl)cc3)c3c(sc(C)c3C)-n3c(C)nnc32)C(C)(C)C)cc1 [Compound 27]
maximum inhibition Imax [2, 3]: 100%
IC50 [2, 4]: 78 nM

Cc1sc2c(c1C)C(c1ccc(Cl)cc1)=NC(CC(=O)NCCCCNc1cccc3c1C(=O)N(C1CCC(=O)NC1=O)C3=O)c1nnc(C)n1-2 (mixture of isomers) [Compound 21]
maximum inhibition Imax [2, 5]: 88%
IC50 [2, 6]: 250 nM

Cc1ncsc1-c1ccc(CNC(=O)[C@@H]2C[C@@H](O)CN2C(=O)[C@@H](NC(=O)CCOCCCOc2ccc(N3C(=S)N(c4ccc(C#N)c(C(F)(F)F)c4)C(=O)C3(C)C)cc2)C(C)(C)C)cc1 [Compound 4]
maximum AR degradation Dmax [1]: 18%
DC50 [1]: > 3000 nM

Cc1sc2c(c1C)C(c1ccc(Cl)cc1)=N[C@@H](CC(=O)OC(C)(C)C)c1nnc(C)n1-2 [JQ1, reference compound]
maximum inhibition Imax [2, 5]: 93%
IC50 ([2]; Homo sapiens, 22Rv1, read-out: c-Myc expression IC50): 101 nM
IC50 ([2]; Homo sapiens, 22Rv1, read-out: c-Myc expression inhibition IC50): 101 nM

Cc1ncsc1-c1ccc(CNC(=O)[C@@H]2C[C@@H](O)CN2C(=O)[C@@H](NC(=O)COCCOCCNC(=O)C[C@@H]2N=C(c3ccc(Cl)cc3)c3c(sc(C)c3C)-n3c(C)nnc32)C(C)(C)C)cc1 [Compound 28]
maximum inhibition Imax [2, 3]: 94%
IC50 [2, 4]: 80.5 nM

Cc1ncsc1-c1ccc(CNC(=O)[C@@H]2C[C@@H](O)CN2C(=O)[C@@H](NC(=O)CCCCCCCCNC(=O)C[C@@H]2N=C(c3ccc(Cl)cc3)c3c(sc(C)c3C)-n3c(C)nnc32)C(C)(C)C)cc1 [Compound 39]
maximum inhibition Imax [2, 7]: 95.4%
IC50 [2, 8]: 10.2 nM

Cc1sc2c(c1C)C(c1ccc(Cl)cc1)=NC(CC(=O)NCCNc1cccc3c1C(=O)N(C1CCC(=O)NC1=O)C3=O)c1nnc(C)n1-2 (mixture of isomers) [Compound 19]
maximum inhibition Imax [2, 5]: 96%
IC50 [2, 6]: 187 nM

Cc1ncsc1-c1ccc(CNC(=O)[C@@H]2C[C@@H](O)CN2C(=O)[C@@H](NC(=O)COCCOCCOCCNC(=O)C[C@@H]2N=C(c3ccc(Cl)cc3)c3c(sc(C)c3C)-n3c(C)nnc32)C(C)(C)C)cc1 [Compound 31]
maximum inhibition Imax [2, 3]: 99.3%
IC50 [2, 4]: 1.22 nM

Cc1ncsc1-c1ccc(CNC(=O)[C@@H]2C[C@@H](O)CN2C(=O)[C@@H](NC(=O)COCCCOCCCCCNC(=O)C[C@@H]2N=C(c3ccc(Cl)cc3)c3c(sc(C)c3C)-n3c(C)nnc32)C(C)(C)C)cc1 [Compound 32]
maximum inhibition Imax [2, 3]: 98%
IC50 [2, 4]: 0.86 nM

Cc1sc2c(c1C)C(c1ccc(Cl)cc1)=NC(CC(=O)NCCOCCNc1cccc3c1C(=O)N(C1CCC(=O)NC1=O)C3=O)c1nnc(C)n1-2 (mixture of isomers) [Compound 23]
maximum inhibition Imax [2, 5]: 100%
IC50 [2, 6]: 0.682 nM

Cc1ncsc1-c1ccc(CNC(=O)[C@@H]2C[C@@H](O)CN2C(=O)[C@@H](NC(=O)COCCCS(=O)(=O)CCNC(=O)C[C@@H]2N=C(c3ccc(Cl)cc3)c3c(sc(C)c3C)-n3c(C)nnc32)C(C)(C)C)cc1 [Compound 42]
maximum inhibition Imax [2, 7]: 88.3%
IC50 [2, 8]: 122 nM

Cc1ncsc1-c1ccc(CNC(=O)[C@@H]2C[C@@H](O)CN2C(=O)[C@@H](NC(=O)COCCOCCOCCCCOCCOCCNC(=O)C[C@@H]2N=C(c3ccc(Cl)cc3)c3c(sc(C)c3C)-n3c(C)nnc32)C(C)(C)C)cc1 [Compound 37]
maximum inhibition Imax [2, 3]: 96.4%
IC50 [2, 4]: 202 nM

Cc1ncsc1-c1ccc(CNC(=O)[C@@H]2C[C@@H](O)CN2C(=O)[C@@H](NC(=O)COCCOCCOCCCCNC(=O)C[C@@H]2N=C(c3ccc(Cl)cc3)c3c(sc(C)c3C)-n3c(C)nnc32)C(C)(C)C)cc1 [Compound 33]
maximum inhibition Imax [2, 3]: 97%
IC50 [2, 4]: 5 nM

Cc1ncsc1-c1ccc(CNC(=O)[C@@H]2C[C@@H](O)CN2C(=O)[C@@H](NC(=O)COCCCNC(=O)C[C@@H]2N=C(c3ccc(Cl)cc3)c3c(sc(C)c3C)-n3c(C)nnc32)C(C)(C)C)cc1 [Compound 26]
maximum inhibition Imax [2, 3]: 98%
IC50 [2, 4]: 95 nM

Cc1ncsc1-c1ccc(CNC(=O)[C@@H]2C[C@@H](O)CN2C(=O)[C@@H](NC(=O)COCCCCCCNC(=O)C[C@@H]2N=C(c3ccc(Cl)cc3)c3c(sc(C)c3C)-n3c(C)nnc32)C(C)(C)C)cc1 [Compound 41]
maximum inhibition Imax [2, 7]: 100%
IC50 [2, 8]: 25.7 nM

Cc1ncsc1-c1ccc(CNC(=O)[C@@H]2C[C@@H](O)CN2C(=O)[C@@H](NC(=O)COCCCSCCNC(=O)C[C@@H]2N=C(c3ccc(Cl)cc3)c3c(sc(C)c3C)-n3c(C)nnc32)C(C)(C)C)cc1 [Compound 40]
maximum inhibition Imax [2, 7]: 99%
IC50 [2, 8]: 20.9 nM

Cc1ncsc1-c1ccc(CNC(=O)[C@@H]2C[C@@H](O)CN2C(=O)[C@@H](NC(=O)COCCCOCCNC(=O)C[C@@H]2N=C(c3ccc(Cl)cc3)c3c(sc(C)c3C)-n3c(C)nnc32)C(C)(C)C)cc1 [Compound 29]
maximum inhibition Imax [2, 3]: 97%
IC50 [2, 4]: 0.16 nM
maximum inhibition Imax [2, 7]: 97%
IC50 [2, 8]: 0.16 nM

Cc1ncsc1-c1ccc(CNC(=O)[C@@H]2C[C@@H](O)CN2C(=O)[C@@H](NC(=O)COCCCCOCCCCCOc2ccc(N3C(=S)N(c4ccc(C#N)c(C(F)(F)F)c4)C(=O)C3(C)C)cc2)C(C)(C)C)cc1 [Compound 10]
maximum AR degradation Dmax [1]: 77%
DC50 [1]: 60 nM

Cc1sc2c(c1C)C(c1ccc(Cl)cc1)=NC(CC(=O)NCCCNc1cccc3c1C(=O)N(C1CCC(=O)NC1=O)C3=O)c1nnc(C)n1-2 (mixture of isomers) [Compound 20]
maximum inhibition Imax [2, 5]: 93%
IC50 [2, 6]: 123 nM

Cc1ncsc1-c1ccc(CNC(=O)[C@@H]2C[C@@H](O)CN2C(=O)[C@@H](NC(=O)COCCOCCCOc2ccc(N3C(=S)N(c4ccc(C#N)c(C(F)(F)F)c4)C(=O)C3(C)C)cc2)C(C)(C)C)cc1 [Compound 6]
maximum AR degradation Dmax [1]: 54%
DC50 [1]: 72 nM

Cc1ncsc1-c1ccc(CNC(=O)[C@@H]2C[C@@H](O)CN2C(=O)[C@@H](NC(=O)COCCOCCOCCOCCNC(=O)C[C@@H]2N=C(c3ccc(Cl)cc3)c3c(sc(C)c3C)-n3c(C)nnc32)C(C)(C)C)cc1 [Compound 34]
maximum inhibition Imax [2, 3]: 94%
IC50 [2, 4]: 34 nM

Cc1sc2c(c1C)C(c1ccc(Cl)cc1)=NC(CC(=O)NCCOCCOCCNc1cccc3c1C(=O)N(C1CCC(=O)NC1=O)C3=O)c1nnc(C)n1-2 (mixture of isomers) [Compound 25]
maximum inhibition Imax [2, 5]: 100%
IC50 [2, 6]: 13 nM

Cc1ncsc1-c1ccc(CNC(=O)[C@@H]2C[C@@H](O)CN2C(=O)[C@@H](NC(=O)COCCCOCCCNC(=O)C[C@@H]2N=C(c3ccc(Cl)cc3)c3c(sc(C)c3C)-n3c(C)nnc32)C(C)(C)C)cc1 [Compound 30]
maximum inhibition Imax [2, 3]: 100%
IC50 [2, 4]: 19.4 nM

Cc1sc2c(c1C)C(c1ccc(Cl)cc1)=NC(CC(=O)NCCCCCNc1cccc3c1C(=O)N(C1CCC(=O)NC1=O)C3=O)c1nnc(C)n1-2 (mixture of isomers) [Compound 22]
maximum inhibition Imax [2, 5]: 100%
IC50 [2, 6]: 3.79 nM

Cc1ncsc1-c1ccc(CNC(=O)[C@@H]2C[C@@H](O)CN2C(=O)[C@@H](NC(=O)COCCOCCOCCOCCOCCOCCNC(=O)C[C@@H]2N=C(c3ccc(Cl)cc3)c3c(sc(C)c3C)-n3c(C)nnc32)C(C)(C)C)cc1 [Compound 38]
maximum inhibition Imax [2, 3]: 62.2%
IC50 [2, 4]: 707 nM
